Where two headings read alike, the source gives them in different places.
Legend:
dengue virus = experiment: Dengue EC50 determination: PBMC infected with virus/humanized 4G2 antibody complex, plaque reduction assay using BHK cells; format: cell-based; details: M.O.I of 1, 48 hours, plaque reduction in BHK cells
Protocol: Cryopreserved PBMC (Peripheral Blood Mononuclear Cell) cells were purchased from AllCells, LLC in USA. The cells were then thawed according to manufacturer's instructions and re-suspended in RPMI medium supplemented with 1% penicillin/streptomycin solution and 10% Fetal Calf serum. The cells were then counted and viability checked (viability should be at least 80%). After centrifuging and removing the media, the cells were diluted to 1×10^7 cells/mL in RPMI medium supplemented with 1% penicillin/streptomycin. 50 μl of the cells were then dispensed into 96-well tissue culture plate resulting in 5×10^5 cells/well. Next, virus with humanized 4G2 mixture was prepared for infection. Briefly, virus (2×10^7 pfu/ml) was mixed with humanized 4G2 antibody with the final antibody concentration of 0.38 μg/ml and incubated for 30 minutes at 4° C. to assist virus/antibody complex formation. The virus-antibody complex was then added to the PBMC at multiplicity of infection (M.O.I) of 1. The mixture of cells, virus and antibody was then further incubated in the plates at 37° C. for an hour in the humidified incubator for virus attachment and infection to take place. Serial diluted compounds were then added to the final media volume of 200 μl with 2% Fetal Calf Serum (final PBMC concentration would be 2.5×10^6 cells/mL). The plates were then incubated at 37° C., 5% CO2 for another 48 hours. The extent of the infection and compound inhibition was measured by plaque reduction assay using BHK cells [RD-2004-80036]. Briefly, supernatants of BHK cells grown in 24-well tissue culture (seeded at 200,000 cells/well the night before) were removed and subjected to 200 μl of diluted supernatants derived from PBMC infection containing serial diluted compounds. After incubating it for 37° C. for 1 hour in the incubator, the supernatants were removed and BHK cells overlaid with RPMI media containing 0.8% methyl-cellulose, 0.5% DMSO, 0.05% sodium bicarbonate, 25 mM HEPES, 2% fetal bovine serum and 1% penicillin/streptomycin solution. After additional 4 days of incubation at 37° C. incubator, the monolayer of BHK cells were fixed with 4% paraformaldehyde, stained with crystal violet and plaques counted. The dose response (n=2) is calculated by Prism from Graphpad software using a mathematical curve fitting analysis called nonlinear regression with four independent parameters. Briefly, the software generates the best fit curve using the formula F(x)=((A−D)/(1+((x/C)̂B)))+D. In this formula, x represents the concentration of the compound, A is the minimum value, B represents the steepness of the curve (sometimes known as Hill slope), C is the inflection point and D is the maximum value. EC50 was estimated as the concentration of the compound which will inhibit 50% of the plaque formation. A positive control (7-deaza-2′-C-acetylene-adenosine) was used to ensure the quality of the data.

[1] = Liver S9 stability determination; format: in vitro ADME; details: human liver S9 fraction, 1 μM compound, 37° C., up to 120 mins, read-out: liver S9 t1/2
Text: The liver is the main organ of metabolism and contains a high concentration of drug metabolizing enzymes. Metabolic clearance, particularly hepatic, is one of the main determinants affecting systemic drug exposure following both oral and i.v. administration. To assess the ability of the compounds of the invention to reach a systemic circulation, the hepatic S9 fraction was chosen to test for stability of the compounds. Hepatic S9 fraction was obtained following centrifugation of homogenized liver tissue at 9,000 g. The hepatic S9 fraction is composed of both microsomal and cytosolic fractions and contains all the enzymes contained in microsomes plus additional phase I and phase II cytosolic enzymes.
Stock solutions of each tested compound (100 μM) were prepared in methanol by two subsequent 1:10 dilutions from 10 mM DMSO drug solutions, the final assay concentration was 1 μM. Frozen pooled liver S9 fraction was thawed from −20° C. and diluted in phosphate buffer (with and without NADPH) which was pre-warmed at 37° C. for 10 minutes. The reaction was initiated by addition of compound. Manual sample plates were incubated on a Thermo Max Q 2000 shaker placed in a temperature controlled Sartorius Certomat H hood set at 37° C. Sequential samples were removed at designated timepoints (0, 5, 15, 30, 60 and 120 mins) and quenched with 4 volumes of ice cold acetonitrile (containing internal standard, diazepam), centrifuged and supernatants reconstituted in water (acetonitrile:water, 50:50% v/v). Samples were then analyzed by LCMS/MS or LC-UV to assess parent depletion. In vitro half-life (t1/2) is calculated based on the rate of disappearance of compound from the reaction mixture at incubation timepoints up to 2 hours.

[2] = Stability in liver microsomes; format: in vitro ADME; details: human, read-out: liver microsomes t1/2
[3] = CCK8 cytotoxicity assay in HepG2 cells; format: cell-based; details: human, CCK-8
Protocol: HepG2 cells were trypsinized, washed, counted and diluted to 1.6×10^4 cells/ml in DMEM-W/O Glucose, supplemented with 10% Fetal bovine serum (FBS), 1% Penicillin/Streptomycin, 2 mM HEPES, 1 mM Sodium Pyruvate, 10 mM Galactose & 2 mM Glutamine. 25 μl of the media containing 400 cells per well were dispensed in clear 384-well tissue culture plate and incubated at room temperature for 30 minutes. The plate was then transferred and placed at 37° C., 5% CO2 humidified incubator overnight. On the next day, serial-diluted compound plates were prepared and 125 nl of compounds at various concentrations were then dispensed into the tissue culture well (200× dilution). The plates were then transferred to 37° C., 5% CO2 humidified incubator for additional 96 hours. Cytotoxicity was measured by CCK-8 assay. Briefly, CCK-8 was thawed on bench top and diluted 2.5× with the growth media. 35 ul of the pre-diluted CCK-8 was then introduced into each well and the plates were then further incubated in 37° C., 5% CO2 humidified incubator for 3 hours. The absorbance was read by Envision at 450 nm. Dose response curves were calculated as in the previous section. The CC50 is estimated as the concentration of the compound which will inhibit 50% of the signal. A positive control (puromycin) was used to ensure the quality of the data.

[4] = CCK8 cytotoxicity assay in THP-1 cells; format: cell-based; details: human, CCK-8
Protocol: 4 day cytotoxicity assay using THP-1 cells: THP-1 cells grown in suspension were counted and diluted to 8×10^4 cells/ml in RPMI-1640 media supplemented with 10% fetal bovine serum (FBS) and 1% penicillin/streptomycin. 25 ul of the THP-1 containing media consisting of 2000 cells were dispensed in 384-well tissue culture plate and pre-incubated at room temperature for 30 minutes, followed by 37° C., 5% CO2 overnight in the humidified incubator. On the next day, serial-diluted compound plates were prepared and 125 nl of compounds at various concentrations were then dispensed into the tissue culture well (200× dilution). The plates were then transferred to 37° C., 5% CO2 humidified incubator for additional 96 hours. Cytotoxicity was measured by CCK-8 assay. Briefly, CCK-8 was thawed on bench top and diluted 2.5× with the growth media. 35 ul of the pre-diluted CCK-8 was then introduced into each well and the plates were then further incubated in 37° C., 5% CO2 humidified incubator for 3 hours. The absorbance was read by Envision at 450 nm. Dose response curves were calculated as in the previous section (n=2). The CC50 is estimated as the concentration of the compound which will inhibit 50% of the signal. A positive control (puromycin) was used to ensure the quality of the data.

[5] = Bulk-state stability and thermal conversion of crystalline forms; format: physicochemical; details: heated at approximate 142° C.

SMILES | EC50 (dengue virus) [µM] | CC50 at 96 h [3] [µM] | CC50 at 96 h [4] [µM] | further results
CCOC(=O)[C@H](C)N[P@@]1(=O)OC[C@H]2O[C@@H](n3cnc4c(N)nc(N)nc43)[C@](C)(F)[C@@H]2O1 [Comparative Example 1, (S)-Ethyl 2-(((2R,4aR,6R,7R,7aR)-6-(2,6-diamino-9H-purin-9-yl)-7-fluoro-7-methyl-2-oxidotetrahydro-4H-furo[3,2-d][1,3,2]dioxaphosphinin-2-yl)amino)propanoate, reference compound] | > 25 | – | – | –
CCOC(=O)[C@H](C)N[P@@]1(=O)OC[C@H]2O[C@@H](n3ccc(=O)[nH]c3=O)[C@](C)(F)[C@@H]2O1 [Comparative Example 2, (S)-ethyl 2-(((2R,4aR,6R,7R,7aR)-6-(2,4-dioxo-3,4-dihydropyrimidin-1(2H)-yl)-7-fluoro-7-methyl-2-oxidotetrahydro-4H-furo[3,2-d][1,3,2]dioxaphosphinin-2-yl)amino)propanoate, reference compound] | > 25 | – | – | –
CCOc1nc(N)nc2c1ncn2[C@@H]1O[C@@H]2CO[P@@](=O)(OC(C)C)O[C@H]2[C@@]1(C)F [Comparative Example 3, (2S,4aR,6R,7R,7aR)-6-(2-amino-6-ethoxy-9H-purin-9-yl)-7-fluoro-2-isopropoxy-7-methyltetrahydro-4H-furo[3,2-d][1,3,2]dioxaphosphinine 2-oxide, reference compound] | > 25 | – | – | –
COc1nc(N)nc2c1ncn2[C@@H]1O[C@H](CO[P@@](=O)(N[C@@H](C)C(=O)OC(C)C)Oc2ccccc2)[C@@H](O)[C@@]1(C)F [Comparative Example 4, (S)-isopropyl 2-(((S)-(((2R,3R,4R,5R)-5-(2-amino-6-methoxy-9H-purin-9-yl)-4-fluoro-3-hydroxy-4-methyltetrahydrofuran-2-yl)methoxy) (phenoxy)phosphoryl)amino)propanoate, reference compound] | – | – | – | half-life at 1 μM [1]: 18 min; half-life [2]: 6 min
CCOc1nc(N)nc2c1ncn2[C@@H]1O[C@@H]2CO[P@](=O)(NCC(=O)OC(C)C)O[C@H]2[C@@]1(C)F [Example 8, isopropyl 2-(((2R,4aR,6R,7R,7aR)-6-(2-amino-6-ethoxy-9H-purin-9-yl)-7-fluoro-7-methyl-2-oxidotetrahydro-4H-furo[3,2-d][1,3,2]dioxaphosphinin-2-yl)amino)acetate] | 0.33 | > 50 | > 50 | half-life at 1 μM ([1]; pooled liver S9 fraction): 57.5 min
CCOC(=O)[C@@H](N[P@]1(=O)OC[C@H]2O[C@@H](n3cnc4c(OCC)nc(N)nc43)[C@](C)(F)[C@@H]2O1)C(C)C [Example 11, (S)-ethyl 2-(((2S,4aR,6R,7R,7aR)-6-(2-amino-6-ethoxy-9H-purin-9-yl)-7-fluoro-7-methyl-2-oxidotetrahydro-4H-furo[3,2-d][1,3,2]dioxaphosphinin-2-yl)amino)-3-methylbutanoate] | 0.23 | > 50 | > 50 | half-life at 1 μM ([1]; pooled liver S9 fraction): 82 min
COC(=O)[C@H](C)N[P@@]1(=O)OC[C@H]2O[C@@H](n3cnc4c(OC(C)C)nc(N)nc43)[C@](C)(F)[C@@H]2O1 [Example 12, (S)-methyl 2-(((2R,4aR,6R,7R,7aR)-6-(2-amino-6-isopropoxy-9H-purin-9-yl)-7-fluoro-7-methyl-2-oxidotetrahydro-4H-furo[3,2-d][1,3,2]dioxaphosphinin-2-yl)amino)propanoate] | 0.43 | > 50 | > 50 | –
CCCOc1nc(N)nc2c1ncn2[C@@H]1O[C@@H]2CO[P@](=O)(N[C@@H](C)C(=O)OC)O[C@H]2[C@@]1(C)F [Example 14, (S)-methyl 2-(((2R,4aR,6R,7R,7aR)-6-(2-amino-6-propoxy-9H-purin-9-yl)-7-fluoro-7-methyl-2-oxidotetrahydro-4H-furo[3,2-d][1,3,2]dioxaphosphinin-2-yl)amino)propanoate] | 0.18 | > 50 | > 50 | –
CCOC(=O)[C@H](C)N[P@@]1(=O)OC[C@H]2O[C@@H](n3cnc4c(OCC)nc(N)nc43)[C@](C)(F)[C@@H]2O1 [Form III, (S)-ethyl 2-(((2R,4aR,6R,7R,7aR)-6-(2-amino-6-ethoxy-9H-purin-9-yl)-7-fluoro-7-methyl-2-oxidotetrahydro-4H-furo[3,2-d][1,3,2]dioxaphosphinin-2-yl)amino)propanoate] | – | – | – | form conversion on heating [5]: converts to Form II crystalline form

— US20140205566A1, “CYCLIC NUCLEUOSIDE DERIVATIVES AND USES THEREOF” (NOVARTIS AG, priority 2012, published 2014)
